Earlier results as cited in publication PMC7207041 (Medicinal chemistry research : an international journal for …, 2020).

What was measured:
[1] = test system: Nrf2-regulated proteins; settings: WT mice; ref Walsh et al. 2014
[2] = human, mouse, and rat; ref Winkel et al. 2015
[3] = molecular target: Keap1 Kelch domain; settings: read-out: Kd in ITC assay; ref Winkel et al. 2015
[4] = test system: GCLC and NQO1; settings: mouse, administered together with a cytochrome P450 inhibitor; ref Winkel et al. 2015
[5] = test system: Keap1-Nrf2 PPI; settings: read-out: IC50 in FP assay; ref Jiang et al. 2018
[6] = test system: Nrf2 target genes
[7] = test system: LPS-induced cardiomyopathy; settings: ref Jiang et al. 2018
[8] = molecular target: Keap1-Nrf2 PPI; settings: same FP assay conditions; ref Tran et al. 2019
[9] = human liver microsomes; ref Lazzara et al. 2020
[10] = ref Lazzara et al. 2020
[11] = test system: cultured human kidney cells (HEK293); settings: HEK293, 50 and 100 μM; ref Wen et al. 2015
[12] = test system: ARE-mediated genes in HepG2 cells; settings: read-out: EC50, activation of ARE-mediated genes, ref Hu et al. 2013b

COC(=O)[C@]12CCC(C)(C)C[C@H]1[C@H]1C(=O)C=C3[C@@]4(C)C=C(C#N)C(=O)C(C)(C)[C@@H]4CC[C@@]3(C)[C@]1(C)CC2 [CDDO-Me, bardoxolone methyl]
number of proteins changed by treatment [1]: 43 proteins

Cc1cc(C)c(C)c(S(=O)(=O)Nc2ccc(N3CC[C@H](C(=O)O)C3)c3ccccc23)c1C [Compound 12]
metabolic stability in liver microsomes [2]: low metabolic stability
Kd [3]: 6 µM
hepatic mRNA levels of GCLC and NQO1 [4]: significantly increased

C=CCOC(=O)/N=c1\oc2cc(N(CC)CC)ccc2cc1-c1nc2ccccc2s1 [Compound 25]
IC50 [5]: 5.1 µM
mRNA levels of Nrf2 target genes (HO-1 and NQO1) ([6]; H9c2 cardiac cells, ref Jiang et al. 2018): significant increase
effect in mouse model of LPS-induced cardiomyopathy [7]: cardiac protective effect

O=[N+]([O-])c1ccc(Sc2nnc(COc3ccccc3)n2-c2ccccc2)c2ncccc12 [Compound 30]
expression of Nrf2-responsive proteins NQO1 and GCLM ([6]; ref Kazantsev et al. 2014): induced expression
Comparative assessment by Bach et. al. FP (Ki μM) [8]: NA (≤77)

COc1ccc(S(=O)(=O)N(CC(F)(F)F)c2cnc(N(CC(=O)O)S(=O)(=O)c3ccc(OC)cc3)c3ccccc23)cc1 [Compound 11]
cellular levels of Nrf2 and NQO1 expression ([6]; compared with 10, ref Lazzara et al. 2020): remarkable increase
metabolic stability t1/2 [9]: 2.27 h
logD7.4 [10]: 0.5

O=C(O)[C@H]1CCCC[C@H]1C(=O)N1CCc2ccccc2[C@H]1CN1C(=O)c2ccccc2C1=O [Compound 1]
HO-1 protein expression enhancement [11]: 3.5 fold
TRX1 protein expression enhancement [11]: 2–4 fold
EC50 [12]: 18 µM
